According to a compilation of properties of binary mixtures (doi:10.1021/acs.jpcb.9b10454):

Test: xn = mol fraction of the nth substance listed
Details: 303.15 K, 100 kPa

CCn1cc[nH+]c1.O=S(=O)([N-]S(=O)(=O)C(F)(F)F)C(F)(F)F + c1c[nH]cn1
Details | electrical conductivity [S/m] | viscosity [mPa·s]
x1 = 0.194 | 0.891 | –
x1 = 0.252 | – | 20.7
x1 = 0.333 | – | 23
x1 = 0.385 | 0.616 | –
x1 = 0.501 | – | 25.3
x1 = 0.597 | 0.587 | –
x1 = 0.601 | – | 25.6
x1 = 0.671 | – | 27.7
x1 = 0.79 | 0.556 | –
x1 = 0.802 | – | 24.3
x1 = 0.889 | 0.512 | –
x1 = 0.901 | – | 26.7
x1 = 1 | – | 38.8
